“And” between values parts separate entries of the source, which are not always exact repeats. Equal entries are not always repeated. ± gives the uncertainty stated by the source.
Tests used:
[1] = xn = mol fraction of the nth substance listed

Q: Which viscosity (298 K, 101.33 kPa) does the source give for `CCC(C)(C)C` here?
A: 0.3406 ± 0.0056 mPa·s

Q: Which viscosity (303.15 K, 101 kPa) does the source give for `CCCC(=O)OCC` here?
A: 0.5776 ± 0.0054 mPa·s

Q: With `CCCC(=O)OCC(COC(=O)CCC)OC(=O)CCC` as the compound, how does the viscosity (298 K, 101.33 kPa) read?
A: 8.68 ± 0.12 mPa·s

Q: And the viscosity (303 K, 101.33 kPa)?
A: 7.38 ± 0.1 mPa·s

Q: What about the viscosity (308 K, 101.33 kPa) of the same compound?
A: 6.32 ± 0.09 mPa·s

Q: What about the viscosity (313 K, 101.33 kPa) of the same compound?
A: 5.49 ± 0.08 mPa·s

Q: For `CCCCC(CC)COP(=O)(OCC(CC)CCCC)OCC(CC)CCCC` (stereo unspecified), which viscosity (308.15 K, 101 kPa) is on record?
A: 8.206 ± 0.057 mPa·s

Q: With `CCCCCCCCCC(=O)OCC` as the compound, how does the viscosity (298.15 K, 100 kPa) read?
A: 2.112 ± 0.026 mPa·s

Q: With `CCCCN` as the compound, how does the viscosity (293.15 K, 101 kPa) read?
A: 0.55 ± 0.01 mPa·s and 0.523 ± 0.003 mPa·s

Q: What about the viscosity (298.15 K, 100 kPa) of the same compound?
A: 0.468 ± 0.01 mPa·s

Q: What about the viscosity (298.15 K, 101 kPa) of the same compound?
A: 0.48 ± 0.003 mPa·s and 0.474 ± 0.013 mPa·s

Q: And the viscosity (303.15 K, 100 kPa)?
A: 0.458 ± 0.01 mPa·s

Q: And the viscosity (308.15 K, 101.33 kPa)?
A: 0.412 ± 0.0038 mPa·s

Q: And the viscosity (313.15 K, 100 kPa)?
A: 0.398 ± 0.009 mPa·s

Q: And the viscosity (313.15 K, 101 kPa)?
A: 0.401 ± 0.002 mPa·s and 0.3922 ± 0.0051 mPa·s and 0.3891 ± 0.0052 mPa·s

Q: And the viscosity (313.15 K, 101.33 kPa)?
A: 0.3891 ± 0.0052 mPa·s and 0.3887 ± 0.0036 mPa·s and 0.397 ± 0.004 mPa·s

Q: And the viscosity (318.15 K, 101 kPa)?
A: 0.3695 ± 0.0049 mPa·s

Q: And the viscosity (318.15 K, 101.33 kPa)?
A: 0.3676 ± 0.0035 mPa·s

Q: What about the viscosity (323.15 K, 100 kPa) of the same compound?
A: 0.353 ± 0.008 mPa·s

Q: What about the viscosity (323.15 K, 101 kPa) of the same compound?
A: 0.3491 ± 0.0046 mPa·s

Q: And the viscosity (323.15 K, 101.33 kPa)?
A: 0.3486 ± 0.0033 mPa·s and 0.355 ± 0.004 mPa·s

Q: Which viscosity (293.15 K, 101.33 kPa) does the source give for `CC[N+](=O)[O-]` here?
A: 0.68 ± 0.007 mPa·s and 0.679 ± 0.006 mPa·s and 0.679 ± 0.014 mPa·s

Q: And the viscosity (298.15 K, 101.33 kPa)?
A: 0.638 ± 0.006 mPa·s

Q: What about the viscosity (303.15 K, 101 kPa) of the same compound?
A: 0.5737 ± 0.015 mPa·s

Q: What about the viscosity (303.15 K, 101.33 kPa) of the same compound?
A: 0.605 ± 0.005 mPa·s and 0.605 ± 0.013 mPa·s

Q: What about the viscosity (308.15 K, 101 kPa) of the same compound?
A: 0.5507 ± 0.015 mPa·s

Q: And the viscosity (313.15 K, 101.33 kPa)?
A: 0.544 ± 0.005 mPa·s and 0.544 ± 0.011 mPa·s

Q: What about the viscosity (318.15 K, 101 kPa) of the same compound?
A: 0.5009 ± 0.013 mPa·s

Q: Which results are given for `CCn1ccnc1`?
A: viscosity (298.15 K, 100 kPa): 1.93 ± 0.1 mPa·s; viscosity (298.15 K, 101 kPa): 1.933 ± 0.098 mPa·s; viscosity (308.15 K, 100 kPa): 1.59 ± 0.08 mPa·s; viscosity (308.15 K, 101 kPa): 1.594 ± 0.081 mPa·s; viscosity (318.15 K, 100 kPa): 1.34 ± 0.07 mPa·s; viscosity (318.15 K, 101 kPa): 1.343 ± 0.068 mPa·s

Q: With `Cc1ccncc1` as the compound, how does the viscosity (298.15 K, 101.33 kPa) read?
A: 0.86 ± 0.011 mPa·s

Q: With `O=C(O)C(Cl)(Cl)Cl` as the compound, how does the viscosity (323.15 K, 101 kPa) read?
A: 4.824 ± 0.2 mPa·s (2×) and 5.323 ± 0.069 mPa·s and 4.797 ± 0.12 mPa·s

Q: Which viscosity (293.15 K, 100 kPa) does the source give for `OC1CCCCCC1` here?
A: 68.77 ± 3.1 mPa·s

Q: What about the viscosity (298.15 K, 100 kPa) of the same compound?
A: 53.6 ± 3 mPa·s

Q: And the viscosity (303.15 K, 100 kPa)?
A: 43.34 ± 3.1 mPa·s

Q: And the viscosity (308.15 K, 100 kPa)?
A: 35.61 ± 3.1 mPa·s

Q: What about the viscosity (313.15 K, 100 kPa) of the same compound?
A: 30.84 ± 3 mPa·s

Q: And the viscosity (318.15 K, 100 kPa)?
A: 26.6 ± 3 mPa·s

Q: For `[Cl-].[Cl-].[Cl-].[Sb+3]`, which viscosity (323.15 K, 101 kPa) is on record?
A: 3.926 ± 0.16 mPa·s

Q: With `CCCC(=O)OCC` + c1ccccc1 as the compound, how does the viscosity ([1]; 303.15 K, 101.33 kPa, x2 = 0.0662) read?
A: 0.591 ± 0.005 mPa·s

Q: What about the viscosity ([1]; 303.15 K, 101.33 kPa, x2 = 0.2048) of the same compound?
A: 0.581 ± 0.005 mPa·s

Q: And the viscosity ([1]; 303.15 K, 101.33 kPa, x2 = 0.3293)?
A: 0.571 ± 0.005 mPa·s

Q: What about the viscosity ([1]; 303.15 K, 101.33 kPa, x2 = 0.4394) of the same compound?
A: 0.563 ± 0.005 mPa·s

Q: And the viscosity ([1]; 303.15 K, 101.33 kPa, x2 = 0.5452)?
A: 0.559 ± 0.005 mPa·s

Q: What about the viscosity ([1]; 303.15 K, 101.33 kPa, x2 = 0.5996) of the same compound?
A: 0.555 ± 0.005 mPa·s

Q: What about the viscosity ([1]; 303.15 K, 101.33 kPa, x2 = 0.6452) of the same compound?
A: 0.554 ± 0.005 mPa·s

Q: And the viscosity ([1]; 303.15 K, 101.33 kPa, x2 = 0.7372)?
A: 0.551 ± 0.005 mPa·s

Q: What about the viscosity ([1]; 303.15 K, 101.33 kPa, x2 = 0.8161) of the same compound?
A: 0.551 ± 0.005 mPa·s

Q: What about the viscosity ([1]; 303.15 K, 101.33 kPa, x2 = 0.8938) of the same compound?
A: 0.554 ± 0.005 mPa·s

Q: And the viscosity ([1]; 303.15 K, 101.33 kPa, x2 = 0.9658)?
A: 0.555 ± 0.005 mPa·s

Q: What about the viscosity ([1]; 308.15 K, 101.3 kPa, x1 = 0.0473) of the same compound?
A: 0.534 ± 0.005 mPa·s

Q: And the viscosity ([1]; 308.15 K, 101.3 kPa, x1 = 0.099)?
A: 0.531 ± 0.005 mPa·s

Q: And the viscosity ([1]; 308.15 K, 101.3 kPa, x1 = 0.1937)?
A: 0.528 ± 0.005 mPa·s

Q: And the viscosity ([1]; 308.15 K, 101.3 kPa, x1 = 0.2987)?
A: 0.526 ± 0.005 mPa·s

Q: What about the viscosity ([1]; 308.15 K, 101.3 kPa, x1 = 0.4059) of the same compound?
A: 0.527 ± 0.005 mPa·s

Q: And the viscosity ([1]; 308.15 K, 101.3 kPa, x1 = 0.4998)?
A: 0.529 ± 0.005 mPa·s

Q: And the viscosity ([1]; 308.15 K, 101.3 kPa, x1 = 0.5753)?
A: 0.533 ± 0.005 mPa·s

Q: And the viscosity ([1]; 308.15 K, 101.3 kPa, x1 = 0.7021)?
A: 0.541 ± 0.005 mPa·s

Q: And the viscosity ([1]; 308.15 K, 101.3 kPa, x1 = 0.7978)?
A: 0.55 ± 0.005 mPa·s

Q: What about the viscosity ([1]; 308.15 K, 101.3 kPa, x1 = 0.903) of the same compound?
A: 0.562 ± 0.005 mPa·s

Q: What about the viscosity ([1]; 308.15 K, 101.3 kPa, x1 = 0.9514) of the same compound?
A: 0.569 ± 0.005 mPa·s

Q: What about the viscosity ([1]; 313.15 K, 101.33 kPa, x2 = 0.2126) of the same compound?
A: 0.539 ± 0.005 mPa·s

Q: And the viscosity ([1]; 313.15 K, 101.33 kPa, x2 = 0.4055)?
A: 0.521 ± 0.004 mPa·s

Q: And the viscosity ([1]; 313.15 K, 101.33 kPa, x2 = 0.507)?
A: 0.513 ± 0.004 mPa·s

Q: What about the viscosity ([1]; 313.15 K, 101.33 kPa, x2 = 0.6031) of the same compound?
A: 0.506 ± 0.004 mPa·s

Q: What about the viscosity ([1]; 313.15 K, 101.33 kPa, x2 = 0.8066) of the same compound?
A: 0.496 ± 0.004 mPa·s

Q: What about the viscosity ([1]; 318.15 K, 101.3 kPa, x1 = 0.0473) of the same compound?
A: 0.47 ± 0.004 mPa·s

Q: What about the viscosity ([1]; 318.15 K, 101.3 kPa, x1 = 0.099) of the same compound?
A: 0.471 ± 0.004 mPa·s

Q: What about the viscosity ([1]; 318.15 K, 101.3 kPa, x1 = 0.1937) of the same compound?
A: 0.472 ± 0.004 mPa·s

Q: And the viscosity ([1]; 318.15 K, 101.3 kPa, x1 = 0.2987)?
A: 0.476 ± 0.004 mPa·s

Q: What about the viscosity ([1]; 318.15 K, 101.3 kPa, x1 = 0.4059) of the same compound?
A: 0.481 ± 0.004 mPa·s

Q: And the viscosity ([1]; 318.15 K, 101.3 kPa, x1 = 0.4998)?
A: 0.486 ± 0.004 mPa·s

Q: And the viscosity ([1]; 318.15 K, 101.3 kPa, x1 = 0.5753)?
A: 0.491 ± 0.004 mPa·s

Q: And the viscosity ([1]; 318.15 K, 101.3 kPa, x1 = 0.7021)?
A: 0.502 ± 0.005 mPa·s

Q: And the viscosity ([1]; 318.15 K, 101.3 kPa, x1 = 0.7978)?
A: 0.512 ± 0.005 mPa·s

Q: What about the viscosity ([1]; 318.15 K, 101.3 kPa, x1 = 0.903) of the same compound?
A: 0.525 ± 0.005 mPa·s

Q: What about the viscosity ([1]; 318.15 K, 101.3 kPa, x1 = 0.9514) of the same compound?
A: 0.531 ± 0.005 mPa·s
